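48-hour exposure; five concentrations; linearly interpolated endpoints. GI50 marks 50% less growth.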 Active and inactive are the calls of the source. No stated cut-off is given here; in the data, active = GI50 up to about 1.1 µM and inactive = higher. Non-standard residues stand in square brackets, D forms with d. Residues, ends and D or L forms follow the SMILES beside them. ξ: configuration not given here. Pentanoyl(2-O,4-OH,5-Cl) = O=C(O)C(O)CC(O)CCl; Ile(3ξ) = CCC(C)[C@H](N)C(=O)O; NMeV = CN[C@H](C(=O)O)C(C)C; NMeA = CN[C@@H](C)C(=O)O; βAla = NCCC(=O)O
Legend:
Assay in all cases: growth of human tumour cells (NCI), 48 h
[1] = system: A549
[2] = system: COLO 205
[3] = system: HCT-15
[4] = system: K562
[5] = system: NCI-H226
[6] = system: NCI-H522
[7] = system: OVCAR-5
[8] = system: OVCAR-8
[9] = system: RPMI-8226
[10] = system: SN12C
[11] = system: SNB-75
[12] = system: U-251
[13] = system: UACC-257
[14] = system: UACC-62
[15] = system: CCRF-CEM
[16] = system: HOP-62
[17] = system: LOX IMVI
[18] = system: MOLT-4
[19] = system: OVCAR-3
[20] = system: OVCAR-4

Compound | GI50 [1] | GI50 [2] | GI50 [3] [µM] | GI50 [4] | GI50 [5] | GI50 [6] | GI50 [7] | GI50 [8] | GI50 [9] | GI50 [10] | GI50 [11] | GI50 [12] | GI50 [13] | GI50 [14] | GI50 [15] | GI50 [16] | GI50 [17] | GI50 [18] | GI50 [19] | GI50 [20]
N#CCCC(CCC#N)(CCC#N)NO | > 100 µM (inactive) | > 100 µM (inactive) | > 100 | > 100 µM (inactive) | > 100 µM (inactive) | 0.013 µM (active) | > 100 µM (inactive) | > 100 µM (inactive) | > 100 µM (inactive) | > 100 µM (inactive) | 73.8 µM (inactive) | > 100 µM (inactive) | > 100 µM (inactive) | > 100 µM (inactive) | – | – | – | – | – | –
O=C1NC(=O)C(CCO)(c2ccccc2)C(=O)N1 | > 100 µM (inactive) | > 100 µM (inactive) | > 100 | > 100 µM (inactive) | > 100 µM (inactive) | > 100 µM (inactive) | > 100 µM (inactive) | > 100 µM (inactive) | – | > 100 µM (inactive) | > 100 µM (inactive) | > 100 µM (inactive) | > 100 µM (inactive) | > 100 µM (inactive) | > 100 µM (inactive) | > 100 µM (inactive) | > 31.6 µM (inactive) | > 100 µM (inactive) | > 100 µM (inactive) | > 100 µM (inactive)
CC(C(=O)NCCNC(=O)CCCC(=O)N(C)O)C(=O)NCCNC(=O)CCCC(=O)N(C)O | > 100 µM (inactive) | > 100 µM (inactive) | > 100 | > 100 µM (inactive) | > 100 µM (inactive) | > 100 µM (inactive) | > 100 µM (inactive) | > 100 µM (inactive) | > 100 µM (inactive) | – | > 100 µM (inactive) | > 100 µM (inactive) | > 100 µM (inactive) | > 100 µM (inactive) | > 100 µM (inactive) | > 100 µM (inactive) | > 100 µM (inactive) | > 100 µM (inactive) | > 100 µM (inactive) | > 100 µM (inactive)
O=C/C(=C1/C=Cc2cc([N+](=O)[O-])ccc2S1)c1ccccc1 | > 100 µM (inactive) | > 100 µM (inactive) | > 100 | > 100 µM (inactive) | > 100 µM (inactive) | > 100 µM (inactive) | > 100 µM (inactive) | – | > 100 µM (inactive) | > 100 µM (inactive) | 25.1 µM (inactive) | > 100 µM (inactive) | > 100 µM (inactive) | – | > 100 µM (inactive) | > 100 µM (inactive) | > 100 µM (inactive) | > 100 µM (inactive) | > 100 µM (inactive) | > 100 µM (inactive)
CCC(C)[C@@H]1NC(=O)[C@@H]2CCCN2C(=O)C(CC(O)CCl)OC(=O)CCNC(=O)[C@H](C)N(C)C(=O)[C@H](C(C)C)N(C)C1=O (stereo partly specified) (cyclo([Ile(3ξ)][NMeV][NMeA][βAla][Pentanoyl(2-O,4-OH,5-Cl)]P)) | 47.6 µM (inactive) | 1.91 µM (inactive) | > 80.2 | > 45.1 µM (inactive) | > 100 µM (inactive) | 2.36 µM (inactive) | > 100 µM (inactive) | > 100 µM (inactive) | 0.247 µM (active) | > 100 µM (inactive) | 2.92 µM (inactive) | > 29 µM (inactive) | 2.46 µM (inactive) | 0.923 µM (active) | 0.483 µM (active) | > 68.2 µM (inactive) | – | – | 17.9 µM (inactive) | > 36.2 µM (inactive)
Nc1ccccc1Sc1ccc(Cl)cc1 | 37.2 µM (inactive) | 21.1 µM (inactive) | 28.1 | 27.8 µM (inactive) | 4.86 µM (inactive) | – | 29.9 µM (inactive) | 37.5 µM (inactive) | 24.4 µM (inactive) | 23.2 µM (inactive) | 18.1 µM (inactive) | 16.2 µM (inactive) | 23.2 µM (inactive) | 30.3 µM (inactive) | 17.9 µM (inactive) | 31.4 µM (inactive) | 28.6 µM (inactive) | > 10 µM (inactive) | 25.6 µM (inactive) | 30.8 µM (inactive)
c1ccc2c(c1)NCc1cc3ccccc3nc1O2 | > 100 µM (inactive) | > 100 µM (inactive) | > 100 | > 100 µM (inactive) | > 40.7 µM (inactive) | > 100 µM (inactive) | > 100 µM (inactive) | > 100 µM (inactive) | > 100 µM (inactive) | > 100 µM (inactive) | > 84.5 µM (inactive) | – | > 100 µM (inactive) | > 100 µM (inactive) | > 68.5 µM (inactive) | > 100 µM (inactive) | 97.1 µM (inactive) | 83 µM (inactive) | > 100 µM (inactive) | > 100 µM (inactive)

Reference: ChEMBL document CHEMBL1201862, “PubChem BioAssay data set” (2004)
